# Source: US9962326B2, “Compositions comprising paulownia tomentosa wood extracts and uses thereof” (JOHNSON & JOHNSON CONSUMER INC., priority 2010, dated 2018)
# Test system: UV-induced ROS, primary human keratinocytes
# Assay: Inhibition of Reactive Oxygen Species Formation in primary human keratinocytes
# Format: cell-based
# Settings: for Reactive Oxygen Species Produced (MFU): 60 minutes post UV
# Procedure: The anti-oxidant activity of Paulownin was established via the Inhibition of Reactive Oxygen Species Formation assay described above. In this study primary human keratinocytes were substituted for human epithelial (KB) cells. The keratinocytes were plated in 96-well tissue culture treated plates at a density of 5000 cells/well in Dulbecco's modified Eagle's medium (DMEM) supplemented with 10% fetal bovine serum (Invitrogen Corp., San Diego, Calif.). After 48 hours, cells were incubated for 30 minutes with 5 μM of the hydrogen peroxide-sensitive fluorescent probe 5-(and-6)-chloromethyl-2′,7′-dichlorodihydro-fluorescein diacetate, acetyl ester (CM-H2DCFDA) (Invitrogen Corp., Carlsbad, Calif.). After incubation, the plate was rinsed to remove excess probe and Paulownin was added at the indicated concentrations. The plate was immediately read on a fluorescent plate reader set at wavelengths 485 nm excitation/530 nm emission to detect basal peroxide formation. The plate was then exposed to UV (1000W-Oriel solar simulator equipped with a 1 mm Schott WG 320 filter; UV dose applied 4.2 kJ/m^2 as measured at 360 nm). The plate was read 60 minutes post UV exposure and the data reported as mean fluorescent units (MFU).
structure (smiles),measurement,setting,value
OC12COC(c3ccc4c(c3)OCO4)C1COC2c1ccc2c(c1)OCO2 (stereo not shown) [Paulownin],UV-induced production of ROS (in words),,significantly reduce
same,Percent Inhibition of UV Induced ROS Formation,UV + 50 ug/ml,65.3%
same,Reactive Oxygen Species Produced (MFU),UV + 50 ug/ml,46.3 ± 6.9 MFU
same,Percent Inhibition of UV Induced ROS Formation,UV + 100 ug/ml,69.5%
same,Reactive Oxygen Species Produced (MFU),UV + 100 ug/ml,40.5 ± 6.1 MFU
same,Percent Inhibition of UV Induced ROS Formation,UV + 200 ug/ml,72.1%
same,Reactive Oxygen Species Produced (MFU),UV + 200 ug/ml,37.2 ± 3.4 MFU
